Measurements: the supplement of paper PMC10331698
± gives the standard deviation of the averaged measurements.

Assays:
Assay in all cases: level (log10 ratio to DMSO vehicle control); higher = higher biomarker level / cell amount than vehicle control
[1] = compound: C=C(C)C(=O)OCC(F)(F)C(F)(F)C(F)(F)F [2,2,3,3,4,4,4-Heptafluorobutyl methacrylate]; conditions: in DMSO
Experimental: (§1)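 BioMAP Diversity Plus panel of 12 human primary cell co-culture systems (3C, 4H, LPS, SAg, BT, BF4T, BE3C, CASM3C, HDF3CGF, KF3CT, MyoF, Mphg). Compounds were added 1 h before stimulation and left for 24 h (MyoF 48 h; BT 72 h for soluble read-outs or 6 d for IgG). Biomarkers were read by ELISA, cytotoxicity by SRB, PBMC viability and proliferation by Alamar Blue. Each well value was divided by the mean of 8 DMSO control wells on the same plate and log10 transformed; duplicate blinded samples were tested at 4 concentrations.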

[2] = compound: C=CC(=O)OCC(F)(F)C(F)(F)C(F)(F)C(F)(F)COC(=O)C=C [1H,1H,6H,6H-Perfluorohexane-1,6-diol diacrylate]; conditions: 6700 nM; in DMSO
Experimental: as §1

[3] = compound: Cc1ccc(S(=O)(=O)OCC(F)(F)C(F)(F)C(F)(F)C(F)(F)C(F)(F)C(F)F)cc1 [1H,1H,7H-Perfluoroheptyl 4-methylbenzenesulfonate]; conditions: in DMSO
Experimental: as §1

[4] = compound: O=C(O)C(F)(F)C(F)(F)C(F)(F)C(F)(F)C(F)(F)C(F)(F)C(F)(F)F [Perfluorooctanoic acid]; conditions: in DMSO
Experimental: as §1

[5] = compound: O=S(=O)(OCC(F)(F)F)C(F)(F)C(F)(F)C(F)(F)C(F)(F)F [2,2,2-Trifluoroethyl perfluorobutanesulfonate]; conditions: in DMSO
Experimental: as §1

[6] = compound: OC(C(F)(F)F)(C(F)(F)F)C(O)(C(F)(F)F)C(F)(F)F [Perfluoropinacol]; conditions: in DMSO
Experimental: as §1

[7] = compound: OCC(F)(F)C(F)(F)C(F)(F)C(F)(F)C(F)(F)C(F)(F)C(F)(F)C(F)(F)CO [1H,1H,10H,10H-Perfluorodecane-1,10-diol]; conditions: in DMSO
Experimental: as §1

[8] = compound: OCCC(F)(F)C(F)(F)C(F)(F)C(F)(F)C(F)(F)C(F)(F)C(F)(F)C(F)(F)F [8:2 Fluorotelomer alcohol]; conditions: 6700 nM; in DMSO
Experimental: as §1

Test System	level (log10) ([1]; 6700 nM)	level (log10) ([1]; 20000 nM)	level (log10) ([1]; 60000 nM)	level (log10) [2]	level (log10) ([3]; 6700 nM)	level (log10) ([3]; 20000 nM)	level (log10) ([3]; 60000 nM)	level (log10) ([4]; 6700 nM)	level (log10) ([4]; 20000 nM)	level (log10) ([4]; 60000 nM)	level (log10) ([5]; 6700 nM)	level (log10) ([5]; 20000 nM)	level (log10) ([5]; 60000 nM)	level (log10) ([6]; 6700 nM)	level (log10) ([6]; 20000 nM)	level (log10) ([7]; 6700 nM)	level (log10) ([7]; 20000 nM)	level (log10) ([7]; 60000 nM)	level (log10) [8]
LPS:CD69	-0.019 ± 0.013	-0.024 ± 0.028	-0.024 ± 0.011	-0.052 ± 0.023	-0.026 ± 0.048	-0.0665 ± 0.088	-0.055	0.0445 ± 0.096	0.0475 ± 0.046	-0.025 ± 0.092	0.0015 ± 0.15	0.001 ± 0.088	-0.073 ± 0.16	-0.105 ± 0.063	-0.192 ± 0.064	-0.0215 ± 0.073	-0.039 ± 0.045	-0.111	-0.063 ± 0.11
BT:sTNF-alpha	0.0155 ± 0.043	0.023 ± 0.058	0.0675 ± 0.0092	-0.698 ± 0.042	0.102 ± 0.067	0.0055 ± 0.084	0.084 ± 0.069	0.0755 ± 0.044	0.097 ± 0.047	0.166 ± 0.11	0.11 ± 0.076	0.165 ± 0.0021	0.189 ± 0.026	0.0425 ± 0.061	-0.146 ± 0.015	-0.017 ± 0.085	-0.007 ± 0.031	-0.762	0.093 ± 0.034
BE3C:CD54/ICAM-1	0.009 ± 0.023	-0.004 ± 0.034	0.005 ± 0.0014	-0.021 ± 0.024	0.014 ± 0.0057	-0.023 ± 0.02	-0.012 ± 0.0014	-0.02 ± 0.0085	-0.0085 ± 0.0035	0.0235 ± 0.039	-0.002 ± 0.0071	-0.013 ± 0.0071	-0.018 ± 0.0057	-0.003 ± 0.0085	-0.0095 ± 0.0035	0.004 ± 0.0085	-0.0305 ± 0.0064	-0.232	0.001 ± 0.0099
LPS:CD142/Tissue Factor	-0.0225 ± 0.026	-0.013 ± 0.025	0.02 ± 0.0057	-0.0415 ± 0.00071	-0.0355 ± 0.11	-0.022 ± 0.065	0.161 ± 0.039	0.0445 ± 0.056	0.008 ± 0.089	0.042 ± 0.017	0.0325 ± 0.12	-0.069 ± 0.13	-0.153 ± 0.13	-0.0795 ± 0.0035	-0.038 ± 0.02	0 ± 0.038	0.0125 ± 0.069	-0.035	-0.0205 ± 0.1
4H:CCL26/Eotaxin-3	0.005 ± 0.02	0.0045 ± 0.0078	-0.0035 ± 0.022	-0.0435 ± 0.005	0.007 ± 0.0057	-0.0015 ± 0.013	-0.057 ± 0.052	0.0215 ± 0.087	-0.022 ± 0.12	-0.0255 ± 0.14	0.0025 ± 0.064	0.01 ± 0.054	-0.0095 ± 0.074	-0.03 ± 0.048	-0.179 ± 0.037	-0.005 ± 0.037	-0.0125 ± 0.035	-0.179	0.017 ± 0.054
BE3C:EGFR	0.0195 ± 0.03	0.0155 ± 0.029	0.012 ± 0.017	-0.034 ± 0.0099	-0.0255 ± 0.0035	-0.03 ± 0.035	-0.027 ± 0.0028	-0.0165 ± 0.012	-0.025 ± 0.011	-0.018 ± 0.037	0.006 ± 0.0028	0.007	0.0025 ± 0.00071	0.0065 ± 0.00071	-0.027 ± 0.0085	-0.031 ± 0.0085	-0.042	-0.102	-0.019 ± 0.0014
BT:sIL-17F	-0.0825 ± 0.14	0.0525 ± 0.083	0.0455 ± 0.033	-0.816 ± 0.025	0.0475 ± 0.13	-0.037 ± 0.051	-0.105 ± 0.032	0.032 ± 0.04	0.0665 ± 0.11	0.095 ± 0.035	0.003 ± 0.023	0.0145 ± 0.0064	-0.0275 ± 0.005	-0.063 ± 0.028	-0.23 ± 0.033	-0.123 ± 0.064	-0.054 ± 0.1	-0.619	0.013 ± 0.065
